Results reported in patent publication US20040213766A1, “Compositions and methods for treating transplants” (priority 2002, published 2004).

What was measured:
severed limbs = assay: Limb replantation after perfusion of amputated hind legs; type: in vivo; conditions: rat hind leg replantation, perfusion every 3 hours
Description: Hind legs were amputated from rats, and the major feed arteries for the severed limbs were cannulated for infusion of A-FUV, loaded in a 1 mM ATP solution. The limbs were perfused with A-FUV or control solutions (see Table 1) every 3 hours, or as deemed necessary by the change in tissue ATP levels. The arterial pressure of the limbs were monitored during infusion to decrease the chance of flow-induced injury, and to monitor the overall preservation of the severed limbs (higher perfusion pressures may indicate limb morbidity). Following the preservation period, the limbs were flushed with Ringers to remove traces of A-FUV. The limbs were then surgically reattached, and external indices of limb function after anastomoses were evaluated (limb color, evidence of microthrombi, coagulation, limb temperature). The animals prior to and following replantation received heparin to prevent hemostasis. In addition, animals were placed on antibiotic therapy to reduce infection. Control limbs were perfused with vehicle only, vehicle and ATP only, or vehicle and FUVs only.

HUVEC = assay: 3H-ATP tracer incorporation into HUVEC and repeated washes; type: cell-based, human; conditions: cells washed repeatedly
Description: To confirm the carboxyfluorescein studies, ^3H-ATP was used as a tracer instead of the fluor. Vesicles were incubated with HUVEC for either 5, 10, 15, 30, 45, 60, 90, 120, or 240 minutes.

Compound	Limb outcome (severed limbs)	radioactivity of the cells after repeated washes (HUVEC)
Nc1ncnc2c1ncn2[C@@H]1O[C@H](COP(=O)(O)OP(=O)(O)OP(=O)(O)O)[C@@H](O)[C@H]1O [ATP]	necrosis	–
Nc1ncnc2c1ncn2[C@@H]1O[C@H](COP(=O)(O)OP(=O)(O)OP(=O)(O)O)[C@@H](O)[C@H]1O [free ^3H-ATP, ^3H-ATP]	–	complete loss of radioactivity
